Results from paper PMC7515950, “Physiologically based pharmacokinetic modeling to assess metabolic drug–drug interaction risks and inform the drug label for fedratinib” (Cancer Chemotherapy and Pharmacology, 2020).
Values joined by “and” are separate entries in the source; they are usually repeats but may differ in a detail not shown here. Equal values may be shown once. Read-outs that look alike come from different tables or passages of the source.

What was measured:
[1] = Compartmental PK modeling of single-dose 500 mg data in healthy volunteers; format: in vivo, human
Source text: The PBPK model of fedratinib was constructed in Simcyp® by integrating available in vitro and in vivo information, including physiochemical parameters, permeability and blood binding parameters, enzyme and transporter inhibition parameters, and human PK parameters estimated from clinical PK data. A stepwise “middle-out” approach was applied to estimate the human PBPK parameters for fedratinib in Simcyp®. First, the temporal profiles of mean plasma concentration of fedratinib were collected from the clinical studies in healthy volunteers (HVs) administered single doses of 500 mg fedratinib. Then the preliminary human oral PK parameters were estimated as described in Supplemental Materials SM2 and SM3.
The minimal PBPK model within Simcyp® was used to describe the distribution of fedratinib. The Vss, Vsac, and Q values were estimated using the compartmental PK modeling approach (see Table 3 in Supplemental Material SM 3) and further refined within Simcyp® based on the model-predicted bioavailability (F) using the following equations: […]
The estimated values of Vss, Vsac, and Q were directly supplied to the Distribution module within Simcyp® without further modifications. Note that since the intravenous (IV) PK data are not available in humans for fedratinib, the distribution parameters include Vss estimated from the oral human PK data may not be accurate and will be subject to further verification if the human IV PK data of fedratinib or other relevant clinical information are available in the future.
The temporal profiles of mean plasma concentration of fedratinib were collected from the clinical studies (TDU12620, BDR12462, FED12258, and ALI13451) conducted in healthy volunteers (HVs) administered with single doses of 500 mg fedratinib. The compartmental PK modeling was conducted in Phoenix®/NLME (V7, Certara, Princeton, NJ). A two-compartment PK structural model with the additive error model was identified to successfully describe the PK data. The “naïve pooled” algorithm provided in Phoenix was used for parameter estimation.

[2] = target: T1, OATP1B3 (Homo sapiens, UniProt Q9NPD5); experiment: OATP1B3 inhibition, HEK-hOATP1B3 cells (TRE0075); format: in vitro ADME; design: expressed in transfected cells; host or cells: HEK^TR-hOATP1B3
T1 sequence (Q9NPD5 1-702): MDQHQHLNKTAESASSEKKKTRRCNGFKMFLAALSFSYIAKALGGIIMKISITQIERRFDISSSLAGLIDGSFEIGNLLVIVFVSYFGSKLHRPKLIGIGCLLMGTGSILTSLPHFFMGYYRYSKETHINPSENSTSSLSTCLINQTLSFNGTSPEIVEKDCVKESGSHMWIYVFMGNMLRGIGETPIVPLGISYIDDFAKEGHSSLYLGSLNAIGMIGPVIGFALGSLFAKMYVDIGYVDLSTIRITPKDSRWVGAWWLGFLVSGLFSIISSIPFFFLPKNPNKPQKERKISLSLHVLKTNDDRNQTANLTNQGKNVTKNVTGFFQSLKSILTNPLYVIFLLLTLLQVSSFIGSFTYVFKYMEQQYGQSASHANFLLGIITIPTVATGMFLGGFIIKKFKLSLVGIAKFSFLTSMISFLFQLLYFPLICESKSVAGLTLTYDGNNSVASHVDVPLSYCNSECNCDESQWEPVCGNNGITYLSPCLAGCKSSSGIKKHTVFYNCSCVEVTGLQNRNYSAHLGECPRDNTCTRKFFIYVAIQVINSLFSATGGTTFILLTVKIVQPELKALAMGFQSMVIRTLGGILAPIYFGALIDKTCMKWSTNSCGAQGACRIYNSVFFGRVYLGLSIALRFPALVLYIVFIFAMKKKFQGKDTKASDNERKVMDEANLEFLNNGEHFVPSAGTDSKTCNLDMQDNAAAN
Source text: (§1) The reported IC50 values were converted to Ki values using the Cheng-Prusoff equation [10]:
(§2) The transporter inhibition parameters (Ki) for fedratinib were derived from the experimentally determined IC50 values using the Cheng-Prusoff equation, i.e., Ki = IC50/(1+[S]/Km) with the substrate concentrations ([S]) reported in the experimental studies and the substrate Km values collected from literature, as summarized in Table 13.

[3] = design: method as in PMID 32248324; conditions: healthy subjects, observation, cited from earlier work; for AUC GM Ratio (90% CI): 300 mg single dose with vs without ketoconazole 200 mg BID, AUCinf
[4] = In vitro binding to human plasma proteins (Study LPR1082); format: in vitro ADME; conditions: mainly bound to α1-acid glycoprotein, read-out: fu (unbound fraction in plasma)
Source text: The physicochemical properties and blood binding parameters of fedratinib including molecular weight, logP, pKa, fu, and B/P were experimentally measured and listed in Table 1.

[5] = healthy subjects, cited from earlier work; for AUC (AUCinf) / Cmax: observation, ref Study TDU12620/INT12894
[6] = system: cryopreserved human hepatocytes; experiment: Contribution of metabolic enzymes in cryopreserved human hepatocytes (MIH0888); format: in vitro ADME; conditions: 1 µM fedratinib
[7] = Biliary excretion in bile-duct cannulated rats (PDM-07-10348-059); format: in vivo; conditions: iv 5 mg/kg
Source text: The biliary excretion of unchanged drug accounts for 2.3% of the total intravenous dose in bile-duct cannulated (BDC) rats.

[8] = target: P-gp (Homo sapiens, UniProt P08183); experiment: P-gp interaction in Caco-2/TC7 (Study AIV0208); format: in vitro ADME; design: endogenous in cells; host or cells: Caco-2/TC7
Source text: as §1, §2

[9] = healthy subjects, single doses of 500 mg, two-compartment model
[10] = 300 mg single dose + ketoconazole 200 mg BID, GM
[11] = 300 mg single dose + ketoconazole 200 mg BID, Mean (SD)
[12] = 300 mg single dose alone, Mean (SD)

Sequence of P-gp (P08183 whole entry): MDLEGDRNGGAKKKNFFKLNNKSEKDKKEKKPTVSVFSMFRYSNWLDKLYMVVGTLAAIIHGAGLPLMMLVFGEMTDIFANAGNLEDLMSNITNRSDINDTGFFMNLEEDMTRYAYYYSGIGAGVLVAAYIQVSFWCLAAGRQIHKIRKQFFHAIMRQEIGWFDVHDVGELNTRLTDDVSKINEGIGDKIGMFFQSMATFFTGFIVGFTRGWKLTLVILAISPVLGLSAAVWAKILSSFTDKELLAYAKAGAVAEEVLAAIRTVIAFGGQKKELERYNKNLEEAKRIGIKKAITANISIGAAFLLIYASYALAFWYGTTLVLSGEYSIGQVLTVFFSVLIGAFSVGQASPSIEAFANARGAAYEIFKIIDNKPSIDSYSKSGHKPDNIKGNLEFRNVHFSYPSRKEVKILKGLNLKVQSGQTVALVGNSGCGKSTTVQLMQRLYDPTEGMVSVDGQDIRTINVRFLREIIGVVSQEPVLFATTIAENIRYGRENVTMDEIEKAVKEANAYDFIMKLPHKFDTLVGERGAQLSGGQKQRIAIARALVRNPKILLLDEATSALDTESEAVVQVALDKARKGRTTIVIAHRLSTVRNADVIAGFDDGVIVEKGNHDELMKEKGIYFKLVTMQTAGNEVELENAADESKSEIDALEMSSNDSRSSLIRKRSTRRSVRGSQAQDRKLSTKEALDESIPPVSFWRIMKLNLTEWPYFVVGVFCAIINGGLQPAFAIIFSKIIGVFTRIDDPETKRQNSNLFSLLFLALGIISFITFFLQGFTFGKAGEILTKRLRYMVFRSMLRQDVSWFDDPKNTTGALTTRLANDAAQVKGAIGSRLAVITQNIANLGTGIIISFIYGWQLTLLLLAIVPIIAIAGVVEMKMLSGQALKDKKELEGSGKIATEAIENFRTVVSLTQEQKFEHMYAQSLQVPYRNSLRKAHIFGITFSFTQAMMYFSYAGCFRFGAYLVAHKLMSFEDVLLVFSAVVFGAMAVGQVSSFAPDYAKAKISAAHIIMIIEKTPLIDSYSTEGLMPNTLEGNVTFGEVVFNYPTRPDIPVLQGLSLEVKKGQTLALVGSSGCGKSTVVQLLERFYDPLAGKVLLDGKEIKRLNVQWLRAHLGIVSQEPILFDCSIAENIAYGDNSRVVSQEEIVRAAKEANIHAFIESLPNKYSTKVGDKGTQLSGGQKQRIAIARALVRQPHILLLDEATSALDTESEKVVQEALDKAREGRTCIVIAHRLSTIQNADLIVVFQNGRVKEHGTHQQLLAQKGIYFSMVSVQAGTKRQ

## Cc1cnc(Nc2ccc(OCCN3CCCC3)cc2)nc1Nc1cccc(S(=O)(=O)NC(C)(C)C)c1 [Fedratinib]
[1]; Simcyp input
  ka: 0.220 h⁻¹
[1]; from compartmental modeling, assuming F ~0.36
  Q (inter-compartment clearance): ~ 11 L/h
[1]; from compartmental modeling, assuming F ~0.36 and body weight ~81 kg
  Vsac: 3.5 L/kg
[1]; from compartmental modeling, assuming F ~0.36 and body weight ~81 kg, listed as fedratinib
  Vsac: 3.5 L/kg
[1]; healthy subjects, single doses of 500 mg
  ka (first-order absorption constant): 0.22 h⁻¹ and 0.221 h⁻¹
[1]; [9]
  CL2/F: 30.8 L/h
  CL/F: 27.2 L/h
  V2/F: 797 L
  V/F: 107 L
[1]; healthy subjects, single doses of 500 mg, listed as fedratinib
  ka (first-order absorption constant): ~ 0.22 h^-1
[1]; human, plasma, oral, 500 mg, from compartmental modeling, assuming F ~0.36 and body weight ~81 kg, read-out: Vss
  Vd: ~4.1 L/kg
[2]; from IC50 by Cheng-Prusoff, probe CCK8
  Ki: 8.4 µM
[2]; probe CCK8 0.5 μM
  IC50: 9.51 µM
[3]; [10]
  AUC (AUCinf): 25000 ng·h/mL
  Cmax: 741 ng/mL
[3]; [11]
  AUC (AUCinf): 26,800 (10,600) ng/mL·h
  Cmax: 812 (374) ng/mL
[3]; 300 mg single dose alone, GM
  AUC (AUCinf): 6460 ng·h/mL
  Cmax: 379 ng/mL
[3]; [12]
  AUC (AUCinf): 7440 (4060) ng/mL·h
  Cmax: 444 (262) ng/mL
[3]
  AUC GM Ratio (90% CI): 3.06 (2.46–3.80)
[3]; listed as fedratinib
  AUC GM Ratio (90% CI): 3.06
[4]
  fraction unbound: 0.05
[5]; 300 mg single dose, GM
  AUC (AUCinf): 6530 ng·h/mL
  Cmax: 497 ng/mL
[5]; 300 mg single dose, Mean (SD)
  AUC (AUCinf): 6730 (1990) ng/mL·h
  Cmax: 521 (189) ng/mL
[5]; 500 mg single dose, GM
  AUC (AUCinf): 13200 ng·h/mL
  Cmax: 683 ng/mL
[5]; 500 mg single dose, Mean (SD)
  AUC (AUCinf): 13900 (5240) ng/mL·h
  Cmax: 720 (243) ng/mL
[5]; single doses above 100 mg, ref [3]
  dose-normalized AUC: 30 ng·h/mL/mg
[6]
  hepatic metabolic clearance percentage, CYP2C19: 17% and ~ 17%
  hepatic metabolic clearance percentage, CYP2D6: 2% and ~ 2%
  hepatic metabolic clearance percentage, CYP3A: 63% and ~ 63%
  metabolic contribution to hepatic clearance, other liver enzymes: ~ 18%
[7]
  biliary excretion of unchanged drug, percent of total intravenous dose: 2.3%
[8]
  P-gp substrate in vitro: substrate
[8]; from IC50 by Cheng-Prusoff, probe digoxin
  Ki: 10 µM
[8]; probe digoxin 5 μM
  IC50: 10.1 µM
